For orientation: IC50 means the concentration that inhibits the measured activity by half.

In patent US5436254A, “Carbostyril derivatives” (Otsuka Pharmaceutical Company, Ltd., priority 1989, dated 1995) one finds IC50 data, which are given here for 41 compounds.

Like-named read-outs stand apart in the source and are kept apart here.

The assay concerns the target V1 receptor (Rattus norvegicus, UniProt P30560). Briefly: biochemical. The class given is binding.
[1] abbreviates: [H]3-Arg-vasopressin 2×10^-10 M, rat liver plasma membrane, 37° C., 10 minutes, pH 8.0, read-out: IC50.

Sequence of V1 receptor (P30560 whole entry): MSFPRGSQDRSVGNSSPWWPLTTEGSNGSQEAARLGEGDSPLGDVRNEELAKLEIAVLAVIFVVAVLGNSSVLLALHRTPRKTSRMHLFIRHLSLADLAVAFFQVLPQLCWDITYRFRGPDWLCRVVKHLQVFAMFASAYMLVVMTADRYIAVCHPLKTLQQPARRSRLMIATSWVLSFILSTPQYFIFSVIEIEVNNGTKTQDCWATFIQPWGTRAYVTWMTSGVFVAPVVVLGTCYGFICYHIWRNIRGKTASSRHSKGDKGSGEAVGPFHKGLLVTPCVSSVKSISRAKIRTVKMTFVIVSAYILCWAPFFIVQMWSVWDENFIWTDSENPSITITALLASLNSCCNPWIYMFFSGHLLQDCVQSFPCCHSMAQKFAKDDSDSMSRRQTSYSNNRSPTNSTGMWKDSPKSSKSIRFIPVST

Compound `O=C(c1ccc(OCCCCO)cc1)N1CCC(N2C(=O)CCc3ccccc32)CC1` [Example 36, 1-{1-[4-(4-Hydroxybutoxy)benzoyl]-4-piperidinyl}-3,4-dihydrocarbostyril] displayed an IC50 of 370 nM. `CC(=O)OCCCCOc1ccc(C(=O)N2CCC(N3C(=O)CCc4ccccc43)CC2)cc1` [Example 37, 1-{1-[4-(4-Acetoxybutoxy)benzoyl]-4-piperidinyl}-3,4-dihydrocarbostyril]: half-maximal inhibition (IC50) was put at 360 nM. On to `NC(=O)OCCCCOc1ccc(C(=O)N2CCC(N3C(=O)CCc4ccccc43)CC2)cc1` [Example 38, 1-{1-[4-(4-Carbamoyloxybutoxy)benzoyl]-4-piperidinyl}-3,4-dihydrocarbostyril], for which the half-inhibitory concentration (IC50) came to 270 nM. Consider `CC(=O)OCCCCCOc1ccc(C(=O)N2CCC(N3C(=O)CCc4ccccc43)CC2)cc1` [Example 39, 1-{1-[4-(5-Acetoxypentyloxy)benzoyl]-4-piperidinyl}-3,4-dihydrocarbostyril], for which the IC50 was determined as 150 nM. Compound `C=CCOc1ccc(C(=O)N2CCC(N3C(=O)CCc4ccccc43)CC2)cc1` [Example 44, 1-[1-(4-Allyloxybenzoyl)-4-piperidinyl]-3,4-dihydrocarbostyril] displayed a concentration for half-maximal inhibition (IC50) of 300 nM. In turn, `O=C(c1ccc(Oc2ccccc2)cc1)N1CCC(N2C(=O)CCc3ccccc32)CC1` [Example 45, 1-[1-(4-Phenyloxybenzoyl)-4-piperidinyl]-3,4-dihydrocarbostyril] gave an IC50 of 200 nM. Compound `CNc1ccc(C(=O)N2CCC(N3C(=O)CCc4ccccc43)CC2)c(OC)c1` [Example 48, 1-[1-(2-Methoxy-4-methylaminobenzoyl)-4-piperidinyl]-3,4-dihydrocarbostyril] showed an IC50 of 400 nM.

The compound `COc1cc(N(C)C)ccc1C(=O)N1CCC(N2C(=O)CCc3ccccc32)CC1` [Example 49, 1-[1-(2-Methoxy-4-dimethylaminobenzoyl)-4-piperidinyl]-3,4-dihydrocarbostyril] came in with an IC50 of 200 nM. The compound `CN(C)c1ccc(C(=O)N2CCC(N3C(=O)CCc4ccccc43)CC2)c(N(C)C)c1` [Example 50, 1-{1-[2,4-Bis(N,N-dimethylamino)benzoyl]-4-piperidinyl}-3,4-dihydrocarbostyril] came in with an IC50 of 400 nM.

With `COc1ccc(C(=O)N2CCC(N3C(=O)CCc4ccccc43)CC2)c(N2CCOC2=O)c1` [Example 51, 1-{1-[2-(2-Oxooxazolydine-3-yl)-4-methoxybenzoyl]-4-piperidinyl}-3,4-dihydrocarbostyril], the half-maximal inhibitory concentration (IC50) is 490 nM.

As to `CCOc1ccc(C(=O)N2CCC(N3C(=O)CCc4ccccc43)CC2)c(OC)c1` [Example 52, 1-[1-(2-Methoxy-4-ethoxybenzoyl)-4-piperidinyl]-3,4-dihydrocarbostyril], half-maximal inhibition (IC50) was put at 80 nM. With `COc1cc(SC)ccc1C(=O)N1CCC(N2C(=O)CCc3ccccc32)CC1` [Example 53, 1-[1-(2-Methoxy-4-methylthiobenzoyl)-4-piperidinyl]-3,4-dihydrocarbostyril], inhibition was half-maximal at 80 nM (IC50). For `COc1cc(Cl)ccc1C(=O)N1CCC(N2C(=O)CCc3ccccc32)CC1` [Example 54, 1-[1-(2-Methoxy-4-chlorobenzoyl)-4-piperidinyl]-3,4-dihydrocarbostyril], the half-maximal inhibitory concentration (IC50) stood at 270 nM. `COc1ccc(C(=O)N2CCC(N3C(=O)CCc4ccccc43)CC2)c(N(C)C)c1` [Example 55, 1-[1-(2-Dimethylamino-4-methoxybenzoyl)-4-piperidinyl]-3,4-dihydrocarbostyril] came in with a 50% inhibitory concentration (IC50) of 200 nM.

As to `CCNc1cc(OC)ccc1C(=O)N1CCC(N2C(=O)CCc3ccccc32)CC1` [Example 56, 1-[1-(2-Ethylamino-4-methoxybenzoyl)-4-piperidinyl]-3,4-dihydrocarbostyril], the IC50 was found to be 330 nM. Compound `CCCNc1cc(OC)ccc1C(=O)N1CCC(N2C(=O)CCc3ccccc32)CC1` [Example 57, 1-[1-(2-Propylamino-4-methoxybenzoyl)-4-piperidinyl]-3,4-dihydrocarbostyril] yielded a concentration for half-maximal inhibition (IC50) of 270 nM. Compound `CCN(C)c1cc(OC)ccc1C(=O)N1CCC(N2C(=O)CCc3ccccc32)CC1` [Example 58, 1-{1-[2-(N-Methyl-N-ethylamino)-4-methoxybenzoyl]-4-piperidinyl}-3,4-dihydrocarbostyril] had a half-inhibitory concentration (IC50) of 450 nM. Same read-out and setting: then `CCOc1cc(OC)ccc1C(=O)N1CCC(N2C(=O)CCc3ccccc32)CC1` [Example 59, 1-[1-(2-Ethoxy-4-methoxybenzoyl)-4-piperidinyl]-3,4-dihydrocarbostyril], with 200 nM; and `COc1ccc(C(=O)N2CCC(N3C(=O)CCc4ccccc43)CC2)c(O)c1` [Example 60, 1-[1-(2-Hydroxy-4-methoxybenzoyl)-4-piperidinyl]-3,4-dihydrocarbostyril], with 200 nM; and `COc1ccc(C(=O)N2CCC(N3C(=O)CCc4ccccc43)CC2)c(OC(C)=O)c1` [Example 61, 1-[1-(2-Acetoxy-4-methoxybenzoyl)-4-piperidinyl]-3,4-dihydrocarbostyril], with 300 nM. Take `C=CCOc1cc(OC)ccc1C(=O)N1CCC(N2C(=O)CCc3ccccc32)CC1` [Example 62, 1-[1-(2-Allyloxy-4-methoxybenzoyl)-4-piperidinyl]-3,4-dihydrocarbostyril]: the IC50 was 150 nM.

In turn, `COc1ccc(C(=O)N2CCC(N3C(=O)CCc4ccccc43)CC2)c(OCCCO)c1` [Example 63, 1-{1-[2-(3-Hydroxypropoxy)-4-methoxybenzoyl]-piperidinyl}-3,4-dihydrocarbostyril] gave a 50% inhibitory concentration (IC50) of 270 nM. As to `COc1ccc(C(=O)N2CCC(N3C(=O)CCc4ccccc43)CC2)c(OCCCOC(C)=O)c1` [Example 64, 1-{1-[2-(3-Acetoxypropoxy)-4-methoxybenzoyl]-piperidinyl}-3,4-dihydrocarbostyril], it took 460 nM to reach half-maximal inhibition (IC50).

In the case of `COc1ccc(C(=O)N2CCC(N3C(=O)CCc4ccccc43)CC2)c(OCCCOC(N)=O)c1` [Example 65, 1-{1-[2-(3-Carbamoyloxypropoxy)-4-methoxybenzoyl]-4-piperidinyl}-3,4-dihydrocarbostyril], the IC50 was determined as 270 nM.

`COCCCOc1cc(OC)ccc1C(=O)N1CCC(N2C(=O)CCc3ccccc32)CC1` [Example 66, 1-{1-[2-(3-Methoxypropoxy)-4-methoxybenzoyl]-piperidinyl}-3,4-dihydrocarbostyril] displayed a half-maximal inhibitory concentration (IC50) of 410 nM.

For the compound `COc1ccc(C(=O)N2CCC(N3C(=O)CCc4ccccc43)CC2)c(OCCCC(N)=O)c1` [Example 67, 1-{1-[2-(3-Carbamoylpropoxy)-4-methoxybenzoyl]-4-piperidinyl}-3,4-dihydrocarbostyril], the IC50 is 470 nM.

`COc1ccc(C(=O)N2CCC(N3C(=O)CCc4ccccc43)CC2)c(OCCO)c1` [Example 68, 1-{1-[2-(2-Hydroxyethoxy)-4-methoxybenzoyl]-4-piperidinyl}-3,4-dihydrocarbostyril] came in with an IC50 of 360 nM.

Turning to `COc1ccc(C(=O)N2CCC(N3C(=O)CCc4ccccc43)CC2)c(OCCOC(C)=O)c1` [Example 69, 1-{1-[2-(2-Acetoxyethoxy)-4-methoxybenzoyl]-4-piperidinyl}-3,4-dihydrocarbostyril], the concentration for half-maximal inhibition (IC50) was found to be 420 nM. Compound `COCCOc1cc(OC)ccc1C(=O)N1CCC(N2C(=O)CCc3ccccc32)CC1` [Example 70, 1-{1-[2-(2-Methoxyethoxy)-4-methoxybenzoyl]-4-piperidinyl}-3,4-dihydrocarbostyril] displayed a half-maximal inhibitory concentration (IC50) of 320 nM.

Take `O=C(c1ccccc1)c1ccc(C(=O)N2CCC(N3C(=O)CCc4ccccc43)CC2)cc1` [Example 72, 1-[1-(4-Benzoylbenzoyl)-4-piperidinyl]-3,4-dihydrocarbostyril]: it took 480 nM to reach half-maximal inhibition (IC50). `CCSc1ccc(C(=O)N2CCC(N3C(=O)CCc4ccccc43)CC2)cc1` [Example 74, 1-[1-(4-Ethylthiobenzoyl)-4-piperidinyl]-3,4-dihydrocarbostyril] had a half-inhibitory concentration (IC50) of 180 nM.

The compound `Cc1ccc(C(=O)N2CCC(N3C(=O)CCc4ccccc43)CC2)cc1C` [Example 78, 1-[1-(3,4-Dimethylbenzoyl)-4-piperidinyl]-3,4-dihydrocarbostyril] showed an IC50 of 400 nM. Same read-out and setting: the value for `COc1ccc(C(=O)N2CCC(N3C(=O)CCc4cc(F)ccc43)CC2)c(OC)c1` [Example 79, 6-Fluoro-1-[1-(2,4-dimethoxybenzoyl)-4-piperidinyl]-3,4-dihydrocarbostyril] was 500 nM. Take `COc1cc(SC)ccc1C(=O)N1CCC(N2C(=O)CCc3ccc(F)cc32)CC1` [Example 80, 7-Fluoro-1-[1-(2-methoxy-4-methylthiobenzoyl)-4-piperidinyl]-3,4-dihydrocarbostyril]: half-maximal inhibition (IC50) was put at 80 nM.

As to `COc1ccc(C(=O)N2CCC(N3C(=O)CCc4ccc(C)cc43)CC2)c(OC)c1` [Example 81, 7-Methyl-1-[1-(2,4-dimethoxybenzoyl)-4-piperidinyl]-3,4-dihydrocarbostyril], the IC50 came out at 210 nM. As for `CCOc1ccc(C(=O)N2CCC(n3c(=O)ccc4ccccc43)CC2)c(OC)c1` [Example 82, 1-[1-(2-Methoxy-4-ethoxybenzoyl)-4-piperidinyl]carbostyril], the 50% inhibitory concentration (IC50) (read-out: IC50) stood at 330 nM. For `O=C1CCc2ccccc2N1C1CCN(C(=O)C23CC4CC(CC(C4)C2)C3)CC1` [Example 83, 1-(1-Tricyclo[3.3.1.1^3,7]decanylcarbonyl-4-piperidinyl)-3,4-dihydrocarbostyril], it took 500 nM to reach half-maximal inhibition (IC50). For the compound `COc1cc(SC)ccc1C(=O)N1CCC(N2C(=O)CCc3ccccc32)C1` (centres unmarked) [Example 84, 1-[1-(2-Methoxy-4-methylthiobenzoyl)-3-pyrrolidinyl]-3,4-dihydrocarbostyril], under setting [1], the IC50 is 7100 nM. On the same count and under the same terms, then `COc1ccc(N(Cc2ccccc2)C(=O)c2ccc(N3C(=O)CCc4ccccc43)cc2)cc1` [Example 85], with 3000 nM. Regarding `COc1ccc(N2CCN(CCCOc3ccc(C(=O)N4CCC(N5C(=O)CCc6ccccc65)CC4)cc3)CC2)cc1` [Example 86, 1-{1-[4-(3-[4-(4-Methoxyphenyl)-1-piperazinyl]propoxy)benzoyl]-4-piperidinyl)-3,4-dihydrocarbostyril], the 50% inhibitory concentration (IC50) stood at 570 nM. With `C=CCOCCCOc1ccc(C(=O)N2CCC(N3C(=O)CCc4ccccc43)CC2)cc1` [Example 87, 1-(1-[4-(3-Allyloxypropoxy)benzoyl]-4-piperidinyl}-3,4-dihydrocarbostyril], 530 nM corresponded to half-maximal inhibition (IC50).
